Values of other authors in patent US8828977B2, “Method of treating a subject suffering from degenerative disc disease using a matrix metalloprotease inhibitor” (priority 2006, dated 2014).
≈ marks a conversion by molar mass, not a printed value. Read-outs that look alike come from different tables or passages of the source. One block for each molecule: values may come before it.

Assays:
[1] = rats, single oral dose of suspension
[2] = system: metastatic melanoma cells; details: metastatic melanoma cells in vitro
[3] = system: refractory metastatic cancers
human melanoma cell line = details: activity comparable to doxycycline
COX-2 = target: T1, COX-2 (Homo sapiens, UniProt P35354); details: in vitro
T1 sequence (P35354 18-604): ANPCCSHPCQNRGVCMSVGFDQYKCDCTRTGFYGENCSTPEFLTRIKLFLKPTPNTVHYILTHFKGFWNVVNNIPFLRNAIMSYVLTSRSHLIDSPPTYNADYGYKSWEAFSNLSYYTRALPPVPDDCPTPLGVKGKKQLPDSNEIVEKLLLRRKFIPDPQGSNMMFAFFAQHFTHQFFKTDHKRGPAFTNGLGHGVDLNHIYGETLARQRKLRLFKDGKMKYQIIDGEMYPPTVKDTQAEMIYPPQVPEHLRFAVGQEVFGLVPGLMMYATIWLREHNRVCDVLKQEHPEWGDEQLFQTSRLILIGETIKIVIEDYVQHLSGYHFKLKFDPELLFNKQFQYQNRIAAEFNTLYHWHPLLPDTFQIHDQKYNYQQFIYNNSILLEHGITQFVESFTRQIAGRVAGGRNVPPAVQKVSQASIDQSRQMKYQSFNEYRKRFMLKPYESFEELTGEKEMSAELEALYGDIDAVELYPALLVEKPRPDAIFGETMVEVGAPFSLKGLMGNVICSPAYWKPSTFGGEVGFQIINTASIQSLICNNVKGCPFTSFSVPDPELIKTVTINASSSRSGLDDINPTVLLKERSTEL

HUVEC = details: in vitro
[4] = system: Dunning MatLyLu rat prostate tumor
[5] = rats
[6] = system: rheumatoid arthritis synoviocytes; details: activity comparable to doxycycline
MMP-9 = MMP-9 (Homo sapiens, UniProt P14780); details: of the seven CMTs evaluated, zymography
MMP-2 [7] = target: T2, MMP-2 (Homo sapiens, UniProt P08253)
T2 sequence (P08253 110-660): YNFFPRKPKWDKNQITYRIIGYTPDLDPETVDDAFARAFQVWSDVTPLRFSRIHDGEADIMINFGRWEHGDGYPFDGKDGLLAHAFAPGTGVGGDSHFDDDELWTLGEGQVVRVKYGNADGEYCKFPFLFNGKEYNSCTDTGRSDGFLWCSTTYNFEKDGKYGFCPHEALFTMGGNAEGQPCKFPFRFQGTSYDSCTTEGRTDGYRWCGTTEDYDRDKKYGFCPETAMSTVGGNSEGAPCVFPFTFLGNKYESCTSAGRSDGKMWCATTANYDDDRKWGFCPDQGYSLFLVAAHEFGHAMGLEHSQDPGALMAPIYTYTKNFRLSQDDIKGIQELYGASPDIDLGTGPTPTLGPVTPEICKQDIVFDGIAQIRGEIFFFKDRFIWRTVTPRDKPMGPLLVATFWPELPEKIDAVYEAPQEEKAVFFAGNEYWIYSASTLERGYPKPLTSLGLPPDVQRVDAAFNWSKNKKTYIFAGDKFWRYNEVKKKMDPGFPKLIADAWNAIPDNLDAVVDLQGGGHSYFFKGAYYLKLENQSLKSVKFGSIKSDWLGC

[8] = system: AIDS-associated Kaposi's sarcoma
MMP-2 [9] = target: T2, MMP-2; details: of the seven CMTs evaluated, zymography
[10] = 142 animals, daily gavage 40 mg/kg for 7 days
[11] = not given; remark: listed apart in the source
[12] = stability and solubility inversely related
[13] = system: prostate cancer cell lines
[14] = 18 KS patients, sampling lasted only 24 h
[15] = two dose-escalation studies in humans
[16] = system: lung foci (experimental metastasis); details: SCID mice
[17] = not given; remark: listed apart in the source
[18] = system: panel of prostate cancer cell lines; details: MTT assays
[19] = monkeys, any dosing schedule, after three to five doses
[20] = system: human umbilical vein endothelial cells (HUVECs); details: HUVECs stimulated with angiogenic factors in vitro
immune responses = details: in vivo
[21] = mice
[22] = 35 patients with refractory metastatic cancers
[23] = non-competitive component, read-out: Ki′ (the dissociation equilibrium constant) value for MMP-2

Chain of MMP-9 (P14780 94-707): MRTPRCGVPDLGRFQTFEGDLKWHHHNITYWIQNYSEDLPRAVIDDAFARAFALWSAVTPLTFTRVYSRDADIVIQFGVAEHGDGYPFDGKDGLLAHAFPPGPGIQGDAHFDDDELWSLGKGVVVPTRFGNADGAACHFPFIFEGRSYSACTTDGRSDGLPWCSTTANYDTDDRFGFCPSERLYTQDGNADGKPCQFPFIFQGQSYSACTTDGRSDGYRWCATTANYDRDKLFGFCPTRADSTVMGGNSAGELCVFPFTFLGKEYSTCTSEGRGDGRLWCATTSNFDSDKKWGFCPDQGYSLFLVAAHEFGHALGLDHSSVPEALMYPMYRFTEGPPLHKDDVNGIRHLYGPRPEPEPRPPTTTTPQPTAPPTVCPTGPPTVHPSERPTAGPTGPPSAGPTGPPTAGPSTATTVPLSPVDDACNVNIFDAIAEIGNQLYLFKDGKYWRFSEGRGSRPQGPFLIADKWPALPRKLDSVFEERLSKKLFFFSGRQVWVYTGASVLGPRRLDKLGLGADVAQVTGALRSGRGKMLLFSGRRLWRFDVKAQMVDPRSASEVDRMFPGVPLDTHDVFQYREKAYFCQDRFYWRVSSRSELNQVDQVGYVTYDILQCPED

Compound: NC(=O)C1=C(O)C[C@@H]2C[C@@H]3Cc4cccc(O)c4C(=O)C3=C(O)[C@]2(O)C1=O [CMT-3]
half-life [1]: approximately 6 h | vascular mimicry [2]: inhibited this mechanism | patients experiencing some phototoxicity ([3]; 50 mg/m^2/day, sun-block mandatory): over 50% | cases of drug-induced lupus [3, 22]: three cases | cases of reversible sideroblastic anemia [3, 22]: three cases | maximum tolerated dose (MTD) [3, 22]: 98 mg/m^2/day | change between pre- and post-treatment levels of MMP-2 or MMP-9 ([3]; 35 patients, overall): no significant change | sunburn (photosensitivity), dose-limiting ([3]; highest dose 98 mg/m^2/day, despite prophylactic measures): all 18 patients developed sunburn | musculoskeletal side effects ([3]; human trials): no reports | disease-stabilization ([3]; three out of seven patients with tumors of non-epithelial origin): 43% | inhibiting the in vitro invasive ability (human melanoma cell line): most active | COX-2 enzyme activity (COX-2): inhibit COX-2 enzyme activity | HUVEC proliferation (HUVEC): inhibited HUVEC proliferation | iNOS mRNA degradation (iNOS mRNA): increases iNOS mRNA degradation | instances of lung metastases ([4]; daily gavage at 40 mg/kg for 7 days, controls 59.5±13.9): 28.9±15.4 tumors/animal | decrease of primary tumor incidence ([4]; pre-dosing the rats for 7 days): 55±9% | delay of tumor growth ([4]; pre-dosing the rats for 7 days): 27±9.3% | reduction in metastases ([4]; pre-dosing the rats for 7 days): 58±8% | terminal half-life [5]: 7 h | inhibiting the in vitro invasive ability [6]: most active | rank as MMP-9 inhibitor (MMP-9): second most potent MMP-9 inhibitor | Ki (MMP-2 [7]; competitive component, read-out: dissociation binding constant (Ki) value for MMP-2): 74 µM | Ki (MMP-2 [7]; [23]): 148 µM | median duration of response ([8]; 18 KS patients): > 25 weeks | median time to response ([8]; 18 KS patients): 4 weeks | overall response rate ([8]; 18 KS patients, one complete and seven partial responses): 44% | doses not tolerated ([8]; KS patients): > 50 mg/m^2/day | evaluable patients with decrease in plasma concentration of MMP-2 ([8]; KS patients): 61% | evaluable patients with decrease in plasma concentration of MMP-9 ([8]; KS patients): 37% | doses reasonably well tolerated ([8]; KS patients, dose levels 25, 50 and 70): up to 70 mg/m^2/day | increase of MMP-2 level from baseline ([8]; non-responding patients): 300 ng/mL | decrease of MMP-2 level from baseline ([8]; responding patients): 56 ng/mL | rank as MMP-2 inhibitor (MMP-2 [9]): most effective MMP-2 inhibitor | adverse effects or weight loss [10]: no adverse effects or weight loss | total apparent clearance [22]: 0.163 ± 0.0967 mL/min/kg | median half-life (35 patients, one-compartment model): approximately 56.1 h | median apparent total clearance (humans): 0.17 mL/min/kg | median pseudo-steady-state apparent volume of distribution (humans): 0.64 L/kg | dose with histopathological lesions in the small intestine and thymus ([11]; rats): 100 mg/kg/day | plasma level at which dose-limiting gastrointestinal toxicities occurred ([11]; rats (stated for both species)): ≥ 15000 ng/mL | pH of maximum stability [12]: < 4 | apoptosis, necrosis and cell-cycle arrest ([13]; added to prostate cell lines in vitro): increased apoptosis and necrosis as well as cell-cycle arrest | time of exposure to apoptosis induction ([13]; prostate cancer cell lines): ≤ 4 h | induction of apoptosis ([13]; prostate cancer cell lines, concentration-dependent): induced apoptosis | median half-life [14]: 39.3 h | dose up to which plasma levels increased (plateau of steady-state concentration above) [15]: up to 50 mg/m^2/day | metastatic invasion compared with control animals ([16]; higher dose 100 mg/kg): did not significantly impact | number of lung foci ([16]; orally at 40 mg/kg): significantly reduced | water solubility [17]: ~10 µg/mL (≈ 26.9 µM) | cytotoxicity [18]: significantly cytotoxic | dose resulting in mortalities [19]: 100 mg/kg/day | microtubule formation [20]: inhibited microtubule formation

Ki (MMP-2 [7]; [23]): 144 µM | effect on immune responses (immune responses): moderately inhibit immune responses
Compound: C[C@H]1c2cccc(O)c2C(=O)C2=C(O)[C@]3(O)C(=O)C(C(N)=O)=C(O)[C@@H](N(C)C)[C@@H]3[C@@H](O)[C@@H]21 [doxycycline]
hepatotoxic effect [21]: hepatotoxic effect | cytotoxicity [18]: significantly cytotoxic
